Values of other authors, collected in patent US9173403B2, “Parasiticidal compositions comprising multiple active agents, methods and uses thereof” (MERIAL, INC., priority 2010, dated 2015).

Conditions: beagle dogs; spot-on administration; 14C radiolabeled drug

N#Cc1nn(-c2c(Cl)cc(C(F)(F)F)cc2Cl)c(N)c1[S+]([O-])C(F)(F)F (stereo not shown) [fipronil, 5-amino-3-cyano-1-(2,6-dichloro-4-trifluoromethylphenyl)-4-trifluoromethylsulfinylpyrazole]
time persistently detected in the whole skin after treatment: up to 56 days
